Source: article PMC5108032, “Discovery of a Quinoline-4-carboxamide Derivative with a Novel Mechanism of Action, Multistage Antimalarial Activity, and Potent in Vivo Efficacy” (Journal of Medicinal Chemistry, 2016)
“And” between values parts separate entries of the source, which are not always exact repeats. Equal entries are not always repeated. Where two headings read alike, the source gives them in different places. Marks after values point to notes of the source that are not given here.

Legend:
P. berghei ANKA strain = assay: In vivo antimalarial efficacy in the P. berghei mouse model (Peter's test); design: species or system Plasmodium berghei in female NMRI mice; conditions: for cure / inhibition in vivo at 1 mg/kg: once daily; for cure: mice cured / mice in group; for inhibition in vivo at 1 mg/kg: Plasmodium berghei, po, 96 h, 4 × 1 mg/kg oral, read-out: activity (reduction of parasitemia)
Method: Compound 41 was dosed as a bolus solution intravenously at 1 mg free base/kg (dose volume: 5 mL/kg; dose vehicle: 5% DMSO;saline) or by gavage orally as solution at 3 mg free base/kg (dose volume: 10 mL/kg; Dose vehicle: 0.5% w/v hydroxypropylmethylcellulose with 0.4% v/v Tween 80 and 0.5% v/v benzyl alcohol) to male Sprague Dawley rats (n=3/dose route). Blood samples were taken from each rat at 5, 15, 30 min, 1, 2, 4, 6, 8, 24 and 30 h post-dose, mixed with two volumes of distilled water and stored frozen until UPLC/MS/MS analysis.
Pharmacokinetic parameters were derived from the blood concentration time curve for each compound using PKsolutions software v 2.0 (Summit Research Services, USA).
In vivo antimalarial efficacy studies in P. berghei. (Swiss TPH)
In vivo efficacy was conducted as previously described10 with the modification that female NMRI mice (n = 3) were infected with a GFP-transfected P. berghei ANKA strain (donated by A. P. Waters and C. J. Janse, Leiden University, The Netherlands), and parasitaemia determined (96 h after infection) using standard flow cytometry techniques. Compounds 1, 25, 27, 30 and 49 were prepared in 10% DM SO, 40% PEG 400 and 50% water prior to administration orally, once daily for 4 days.
Compounds 40, 41, 43 and 44 were prepared in a non-solubilizing, standard suspension vehicle called HPMC (0.5% [wt/vol] hydroxypropylmethylcellulose, 0.5% [vol/vol] benzyl alcohol, 0.4% [vol/vol] Tween 80, and 0.9% [wt/vol] sodium chloride in water) prior to administration orally, once daily for 4 days. Blood samples were collected on day 4 (96 h after infection) in two volumes water. Animals […]
and then hourly up to 4 h after dosing each day. The animals were selected randomly for each group

[1] = design: method as in PMID 26085270; conditions: pH 7.4; cited from earlier work
[2] = design: method as in PMID 26085270; conditions: potentiometric titration, value in parentheses; cited from earlier work
[3] = design: method as in PMID 26085270; conditions: mouse, iv dose 1 mg/kg; cited from earlier work
Pf (3D7) = assay: Ligand efficiency metrics (LE, LLE, LELP), selectivity and fold changes; design: species or system Plasmodium falciparum
[4] = design: method as in PMID 26085270; conditions: male Sprague Dawley rat, intravenous at 1 mg/kg; cited from earlier work
[5] = design: method as in PMID 26085270; conditions: mouse liver microsome; cited from earlier work
[6] = Parallel artificial membrane permeability assay (PAMPA); format: in vitro ADME
[7] = design: method as in PMID 26085270; conditions: mouse plasma protein binding; cited from earlier work
[8] = design: method as in PMID 26085270; conditions: rat liver microsome; cited from earlier work
[9] = design: method as in PMID 26085270; conditions: human liver microsome; cited from earlier work
[10] = Mammalian cell growth inhibition counter-screen (resazurin); format: cell-based, human; conditions: human, MRC-5 cells (normal diploid human fibroblasts)
Method: (§1) Plasmodium falciparum screening
(§2) Assays against P. falciparum were conducted as previously described.1 Cultures of the widely-used malaria reference strain of chloroquine-sensitive Plasmodium falciparum strain 3D7 were maintained in a 5% suspension of human red blood cells (obtained from East of Scotland Blood Transfusion Service, Ninewells Hospital, Dundee) cultured in RPMI 1640 medium (pH 7.3) supplemented with 0.5% Albumax II (Gibco Life Technologies, San Diego, CA), 12 mM sodium bicarbonate, 0.2 mM hypoxanthine and 20 mg/L gentamicin at 37°C, in a humidified atmosphere of 1% O 2, 3% CO2 with a balance of nitrogen. Growth inhibition was quantified using a fluorescence assay utilising the binding of SYBR green to double stranded DNA, which emits a fluorescent signal at 528 nm after excitation at 485nm.2 Mefloquine (potency range 30-60 nM) was used as a drug control to monitor the quality of the assay (Z’ = 0.6 to 0.8, Signal to background >3, where Z’ is a measure of the discrimination between the positive and negative controls on a screen plate). A 96-well [3H]-Hypoxanthine incorporation assay was also developed as a secondary assay in order to validate compounds from the initial screen in an orthogonal platform.3 Compound bioactivity from both assays was expressed as […]
(§3) P. falciparum (panel of resistant strains) in vitro assay. (Swiss TPH)
(§4) All Plasmodium strains were cultured according to Trager and Jensen and are described at www.beiresources.org (resistant strains: K1, W2, 7G8, TM90C2A, D6 and V1/S, sensitive strain:
(§5) NF54). EC50 values were determined in vitro by measuring incorporation of the nucleic acid precursor […]
(§6) Mammalian Cell Growth Inhibition assay
(§7) A counter-screen against normal diploid human fibroblasts (MRC-5 cell line) was carried out to exclude non-selective, and toxic compounds. The assay was essentially carried out as described previously.4 Cells were plated and incubated overnight to allow them to adhere as monolayers. A working stock of each test compound was transferred to an intermediate 384-well plate and pre-diluted with minimum essential media (MEM). The pre-diluted stocks were then transferred onto the cell monolayers, and the plates were incubated for 68 h. Resazurin, to a final concentration of 50 μM, was added to each well, after which plates were incubated for a further 3 h and measured for fluorescence (λex=528 nm, λem=590 nm)
(§8) In vitro Cell Assay Data Analysis.
(§9) All data was processed using IDBS ActivityBase® raw data was converted into per cent inhibition through linear regression by setting the high inhibition control as 100% and the no inhibition control as 0%. Quality control criteria for passing plates were as follows: Z’> 0.5, S:B> 3, %CV(no inhibition < 15 . The formula used to calculate Z’ is 1 3× (St D e v _ hi gh + St D e v _ low) . […]
(§10) All EC50 Curve fitting was undertaken using XLFit version 4.2 using Model 205 with the following 4 parametric equation: y = A + B A A + ($-&) ,where A=% inhibition at bottom, B=% […]
(§11) inhibition at top, C= EC50, D= slope, x= inhibitor concentration and y= % inhibition. […]
(§12) reach 100% of inhibition, B was fixed to 100 only when at least 50% of inhibition was reached.
(§13) Plasmodium falciparum late stage (IV-V) gametocyte high content imaging assay Plasmodium falciparum NF54-pfs16-LUC-GFP stage IV-V Gametocytes were produced as described previously.5 Compounds were solubilized in DMSO and serially diluted in three concentrations per log standard curves in DM SO. One µl of compound was subsequently diluted in 25µl of water (4% DMSO) and 5µl transferred into the base of 384 well PerkinElmer CellCarrier plates. Forty-five µl of stage IV-V gametocytes (10%P in 0.1%H) were added to the imaging plates which were in turn sealed with a gas permeable membrane and incubated at 37°C, 5% CO 2, 5% O2, 90% N2 and 60% humidity […]
(§14) Post incubation, 5µl of MitoTracker® Red CM -H2Xros (MTR) solution (0.66ug/ml) was added to all wells and the plates incubated for a further 16hours. […]

[11] = tested on: Plasmodium falciparum strain 3D7; assay: Plasmodium falciparum screening, SYBR green growth inhibition; format: cell-based; conditions: 3D7, supplementary csv, read-out: Pf (3D7) EC50
Method: as §1, §2, §3, §4, §5, §6, §7, §8, §9, §10, §11, §12, §13, §14

[12] = Intrinsic clearance (Cli) in mouse liver microsomes; format: in vitro ADME; conditions: mouse liver microsome
From the text: as §11, §12, §13
(§15) Post incubation, 5µl of MitoTracker® Red CM -H2Xros (MTR) solution (0.66ug/ml) was added to all wells and the plates incubated for a further 16hours. The assay plates were then imaged and the number of viable gametocytes determined for test compounds plus 0.4%DMSO and 5µM Puromycin.
(§16) (0.4%DMSO) control values. Percent inhibition was plotted against log compound concentration using a 4 parameter log dose, non-linear regression analysis, with sigmoidal dose response (variable slope) curve fit using Prizm 4.0. IC50 values were obtained from this curve fit. The compound testing was performed in duplicate point within two separate experiments.
(§17) Plasmodium berghei ookinete development assay
(§18) Assay was performed as previously reported.6 Briefly blood containing P. berghei CTRPp-GFP gametocytes was rapidly harvested from infected mice and introduced to test compounds pre-diluted in ookinete medium (to induce gamete formation and support ookinete development) in 96-well plates. Plates were incubated in the dark at 21°C for 22 hr before GFP fluorescence intensity measured in a plate reader. % inhibition of ookinete formation was calculated with reference to the fluorescence intensity values of a positive control (20 µM cycloheximide) and a solvent-only negative control (DMSO). All assays were performed in triplicate independent experiments and EC50 values calculated in Graphpad Prism.
(§19) The aqueous solubility of the test compounds was measured using laser nephelometry, as described previously.7 Compounds were subject to serial dilution from 10 mg/mL to 0.5 mg/mL in DMSO. An aliquot was then mixed with MilliQ water to obtain an aqueous dilution plate with a final concentration range of 100 – 5 μg/mL, with a final DMSO concentration of 1.0%. Triplicate aliquots were transferred to a flat bottomed polystyrene plate which was immediately read on the NEPHELOstar (BMG Lab Technologies). The amount of laser scatter caused by insoluble particulates (relative nephelometry units, RNU) was plotted against compound concentration using a segmental regression fit, with the point of inflection being quoted as the compounds aqueous solubility (μg/mL; […]
(§20) Intrinsic Clearance (Cli) experiments
(§21) The procedure was carried out as reported previously.7 Test compound (0.5 µM) was incubated with female CD1 mouse, male sprague-dawley rat or pooled human mixed gender liver microsomes (Xenotech LLC TM; 0.5 mg/mL 50 mM potassium phosphate buffer, pH 7.4) and the reaction initiated […]
by the addition of excess NADPH (8 mg/mL 50 mM potassium phosphate buffer, pH 7.4).
Immediately, at time zero, then at 3, 6, 9, 15 and 30 min an aliquot (50 μL) of the incubation mixture was removed and mixed with acetonitrile (100 μL) to stop the reaction. Internal standard was added to all samples, the samples centrifuged to sediment precipitated protein and the plates then sealed prior to UPLC-MS/MS analysis using a Quattro Premier XE (Waters Corporation, USA).
XLfit (IDBS, UK) was used to calculate the exponential decay and consequently the rate constant (k) from the ratio of peak area of test compound to internal standard at each timepoint. The rate of […]

[13] = Experimental pKa by potentiometric titration; format: physicochemical; conditions: value in parentheses, read-out: R^3 group pKa, experimental
From the text: Table 4 SAR Study of the R^3 Substituent: Aromatic Groups | column: R^3 group pKa^a

[14] = Intrinsic clearance (Cli) in rat liver microsomes; format: in vitro ADME; conditions: rat liver microsome
From the text: as §11, §12, §13, §15, §16, §17, §18, §19, §20, §21
(§22) by the addition of excess NADPH (8 mg/mL 50 mM potassium phosphate buffer, pH 7.4). […]

[15] = Intrinsic clearance (Cli) in human liver microsomes; format: in vitro ADME; conditions: human liver microsome
From the text: as §11, §12, §13, §15, §16, §17, §18, §19, §20, §21, §22

[16] = Pf (3D7), relative to the comparator compound of the sentence

O=C(NCCN1CCCC1)c1cc(-c2ccc(CN3CCOCC3)cc2)nc2ccc(F)cc12 [Compound 2]
cure (P. berghei ANKA strain; 4 × 3 mg/kg oral): 2/3
cure (P. berghei ANKA strain; 4 × 10 mg/kg oral): 3/3
cure (P. berghei ANKA strain; 4 × 30 mg/kg oral, 30 mg/kg): complete cure and 3/3
ED90 (P. berghei ANKA strain; dosed orally for 4 days): 0.1 to 0.3 mg/kg
PAMPA Pe [1]: 73 nm/s
R^3 group pKa, experimental [2]: 6.8
Clb [3]: 12 ^b mL min^–1 kg^–1
LLE (ligand-lipophilicity efficiency) (Pf (3D7)): 5.9
improvement / increase in potency (Pf (3D7); [16]): 70 fold
Clb [4]: 18 mL min^–1 kg^–1
MLM Cli [5]: <0.5 mL min^–1 g^–1
increase in permeability ([6]; relative to the earlier lead): more than 30 fold
PPB [7]: 63%
RLM Cli [8]: ≤0.8 mL min^–1 g^–1
HLM Cli [9]: ≤1.1 mL min^–1 g^–1

Cc1ccc(-c2cc(C(=O)Nc3cccnc3)c3ccccc3n2)cc1 [Compound 12, N-(Pyridine-3-yl)-2-(p-tolyl)quinoline-4-carboxamide]
drop in potency (Pf (3D7); [16]): 8 fold
EC50 at 68 h [10]: > 50 µM

O=C(NCCN1CCCC1)c1cc(NCCC2CCOCC2)nc2ccc(F)cc12 [Compound 29, 6-Fluoro-N-(2-(pyrrolidin-1-yl)ethyl)-2-((2-(tetrahydro-2H-pyran-4-yl)ethyl)amino)quinoline-4-carboxamide]
EC50 [11]: 0.0017 µM
EC50 at 68 h [10]: > 50 µM

O=C(NCCN1CCCC1)c1cc(-c2ccc(C(=O)N3CCOCC3)cc2)nc2ccc(F)cc12 [Compound 39, 6-Fluoro-2-(4-(morpholine-4-carbonyl)phenyl)-N-(2-(pyrrolidin-1-yl)ethyl)quinoline-4-carboxamide]
EC50 at 68 h [10]: > 50 µM

O=C(NCCN1CCCC1)c1cc(-c2ccc(CN3CCOCC3)c(F)c2)nc2ccc(F)cc12 [Compound 40]
MLM Cli [12]: 1.0 mL min^–1 g^–1
inhibition in vivo at 1 mg/kg (P. berghei ANKA strain): > 99%
pKa [13]: 6.1

O=C(NCCN1CCCC1)c1cc(-c2ccc(CN3CCS(=O)(=O)CC3)cc2)nc2ccc(F)cc12 [Compound 43]
MLM Cli [12]: <0.5 mL min^–1 g^–1
inhibition in vivo at 1 mg/kg (P. berghei ANKA strain): > 99%
RLM Cli [14]: 0.8 mL min^–1 g^–1

O=C(NCCN1CCCC1)c1cc(-c2ccc(CN3CCCC3=O)cc2)nc2ccc(F)cc12 [Compound 44]
MLM Cli [12]: 2.0 mL min^–1 g^–1
HLM Cli [15]: 2 mL min^–1 g^–1
RLM Cli [14]: 0.6 mL min^–1 g^–1

CC(C)NCC(O)COc1cccc2ccccc12 (stereo not drawn) [propanolol, reference compound]
Papp at 5 h, 10 µM ([6]; pH 7.4, read-out: PAMPA Pe): 159 nm/s
